Experimental data taken from patent publication US20110086759A1, “CHEMICAL COMPOUNDS” (SYNGENTA CROP PROTECTION, INC., priority 2007, published 2011).

Legend:
Assay type in all cases: in vivo
[1] = tested on: Alopecurus myosuroides (ALOMY); experiment: Pre-emergence biological efficacy, glasshouse pot test; details: 312 h, pre-emergence, 1,000 g/ha, evaluated after 13 days (100=total damage; 0=no damage), read-out: Percentage damage ALOMY
Procedure, shortened: (§1)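 Standard soil, pots, sown then sprayed at day 1 with 1000 or 250 g/ha test compound. Glasshouse: 24/16 °C, 14 h photoperiod, 65% humidity, twice-daily watering. Evaluation day 13, 0–100 damage score.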

[2] = tested on: Amaranthus retoflexus (AMARE); experiment: as above; details: Amaranthus retroflexus, 312 h; pre-emergence, 1,000 g/ha, evaluated after 13 days (100=total damage; 0=no damage); read-out: Percentage damage AMARE
Procedure, shortened: as §1

[3] = tested on: Echinochloa crus-galli (ECHCG); experiment: as above; details: 312 h, pre-emergence, 1,000 g/ha, evaluated after 13 days (100=total damage; 0=no damage), read-out: Percentage damage ECHCG
Procedure, shortened: as §1

[4] = tested on: Ipomea hederaceae (IPOHE); experiment: as above; details: Ipomoea hederacea, 312 h; pre-emergence, 1,000 g/ha, evaluated after 13 days (100=total damage; 0=no damage); read-out: Percentage damage IPOHE
Procedure, shortened: as §1

[5] = tested on: Setaria faberi (SETFA); experiment: as above; details: 312 h, pre-emergence, 1,000 g/ha, evaluated after 13 days (100=total damage; 0=no damage), read-out: Percentage damage SETFA
Procedure, shortened: as §1

[6] = tested on: Solanum nigrum (SOLNI); experiment: as above; details: 312 h, pre-emergence, 1,000 g/ha, evaluated after 13 days (100=total damage; 0=no damage), read-out: Percentage damage SOLNI
Procedure, shortened: as §1

[7] = tested on: Alopecurus myosuroides (ALOMY); experiment: Post-emergence biological efficacy, glasshouse pot test; details: 312 h, post-emergence, 1,000 g/ha, evaluated after 13 days (100=total damage; 0=no damage), read-out: Percentage damage caused to weed species, ALOMY
Procedure, shortened: (§2)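 Scored 13 days after spraying on a 0 (no damage) to 100 (total damage) scale. Treatment was a post-emergence spray at 1000 or 250 g/ha, from acetone/water 50:50 plus 0.5% Tween 20, onto 8-day-old plants in soil pots. Growth at 24/16° C, 14 h photoperiod, 65% humidity, watered twice daily.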

[8] = tested on: Amaranthus retoflexus (AMARE); experiment: as above; details: Amaranthus retroflexus, 312 h; post-emergence, 1,000 g/ha, evaluated after 13 days (100=total damage; 0=no damage); read-out: Percentage damage caused to weed species, AMARE
Procedure, shortened: as §2

[9] = tested on: Echinochloa crus-galli (ECHCG); experiment: as above; details: 312 h, post-emergence, 1,000 g/ha, evaluated after 13 days (100=total damage; 0=no damage), read-out: Percentage damage caused to weed species, ECHCG
Procedure, shortened: as §2

[10] = tested on: Ipomea hederaceae (IPOHE); experiment: as above; details: Ipomoea hederacea, 312 h; post-emergence, 1,000 g/ha, evaluated after 13 days (100=total damage; 0=no damage); read-out: Percentage damage caused to weed species, IPOHE
Procedure, shortened: as §2

[11] = tested on: Setaria faberi (SETFA); experiment: as above; details: 312 h, post-emergence, 1,000 g/ha, evaluated after 13 days (100=total damage; 0=no damage), read-out: Percentage damage caused to weed species, SETFA
Procedure, shortened: as §2

[12] = tested on: Solanum nigrum (SOLNI); experiment: as above; details: 312 h, post-emergence, 1,000 g/ha, evaluated after 13 days (100=total damage; 0=no damage), read-out: Percentage damage caused to weed species, SOLNI
Procedure, shortened: as §2

Question: Which results are given for `COC(=O)c1nc(C2CC2)nc(NC2CCCCC2)c1Cl` [Compound 4-35, 5-Chloro-4-cyclohexylamino-2-cyclopropyl-6-methoxycarbonyl-pyrimidine]?
Answer: pest or weed control at 1000 g/ha [1]: 0%; pest or weed control at 1000 g/ha [2]: 0%; pest or weed control at 1000 g/ha [3]: 0%; pest or weed control at 1000 g/ha [4]: 0%; pest or weed control at 1000 g/ha [5]: 0%; pest or weed control at 1000 g/ha [6]: 0%; pest or weed control at 1000 g/ha [7]: 30%; pest or weed control at 1000 g/ha [8]: 30%; pest or weed control at 1000 g/ha [9]: 0%; pest or weed control at 1000 g/ha [10]: 60%; pest or weed control at 1000 g/ha [11]: 20%; pest or weed control at 1000 g/ha [12]: 40%

Question: For `COC(=O)c1nc(C2CC2)nc(Nc2ccccc2)c1Cl` [Compound 4-39, 5-Chloro-2-cyclopropyl-6-methoxycarbonyl-4-phenylamino-pyrimidine], which pest or weed control at 1000 g/ha [1] is on record?
Answer: 0%

Question: And the pest or weed control at 1000 g/ha [2]?
Answer: 60%

Question: What about the pest or weed control at 1000 g/ha [3] of the same compound?
Answer: 20%

Question: And the pest or weed control at 1000 g/ha [4]?
Answer: 80%

Question: What about the pest or weed control at 1000 g/ha [5] of the same compound?
Answer: 0%

Question: And the pest or weed control at 1000 g/ha [6]?
Answer: 50%

Question: And the pest or weed control at 1000 g/ha [7]?
Answer: 50%

Question: And the pest or weed control at 1000 g/ha [8]?
Answer: 100%

Question: And the pest or weed control at 1000 g/ha [9]?
Answer: 70%

Question: And the pest or weed control at 1000 g/ha [10]?
Answer: 70%

Question: And the pest or weed control at 1000 g/ha [11]?
Answer: 60%

Question: What about the pest or weed control at 1000 g/ha [12] of the same compound?
Answer: 80%

Question: Which pest or weed control at 1000 g/ha [1] does the source give for `COC(=O)c1nc(C2CC2)nc(Nc2ccc(Cl)c(Cl)c2)c1Cl` [Compound 4-42, 5-Chloro-2-cyclopropyl-4-(3,4-dichlorophenyl-amino)-6-methoxycarbonyl-pyrimidine] here?
Answer: 10%

Question: And the pest or weed control at 1000 g/ha [2]?
Answer: 30%

Question: And the pest or weed control at 1000 g/ha [3]?
Answer: 20%

Question: And the pest or weed control at 1000 g/ha [4]?
Answer: 0%

Question: What about the pest or weed control at 1000 g/ha [5] of the same compound?
Answer: 10%

Question: What about the pest or weed control at 1000 g/ha [6] of the same compound?
Answer: 0%

Question: And the pest or weed control at 1000 g/ha [7]?
Answer: 10%

Question: What about the pest or weed control at 1000 g/ha [8] of the same compound?
Answer: 50%

Question: What about the pest or weed control at 1000 g/ha [9] of the same compound?
Answer: 10%

Question: And the pest or weed control at 1000 g/ha [10]?
Answer: 60%

Question: And the pest or weed control at 1000 g/ha [11]?
Answer: 0%

Question: And the pest or weed control at 1000 g/ha [12]?
Answer: 50%

Question: With `COC(=O)c1nc(C2CC2)nc(NCC2CC2)c1Cl` [Compound 4-43, 5-Chloro-2-cyclopropyl-4-cyclopropylmethyl-amino-6-methoxycarbonyl-pyrimidine] as the compound, how does the pest or weed control at 1000 g/ha [1] read?
Answer: 70%

Question: What about the pest or weed control at 1000 g/ha [2] of the same compound?
Answer: 90%

Question: And the pest or weed control at 1000 g/ha [3]?
Answer: 70%

Question: And the pest or weed control at 1000 g/ha [4]?
Answer: 80%

Question: And the pest or weed control at 1000 g/ha [5]?
Answer: 70%

Question: What about the pest or weed control at 1000 g/ha [6] of the same compound?
Answer: 90%

Question: What about the pest or weed control at 1000 g/ha [7] of the same compound?
Answer: 60%

Question: What about the pest or weed control at 1000 g/ha [8] of the same compound?
Answer: 100%

Question: What about the pest or weed control at 1000 g/ha [9] of the same compound?
Answer: 70%

Question: And the pest or weed control at 1000 g/ha [10]?
Answer: 100%

Question: And the pest or weed control at 1000 g/ha [11]?
Answer: 100%

Question: What about the pest or weed control at 1000 g/ha [12] of the same compound?
Answer: 90%

Question: With `COC(=O)c1nc(C2CC2)nc(NCC2CCCCC2)c1Cl` [Compound 4-49, 5-Chloro-4-cyclohexylmethyl-amino-2-cyclo-propyl-6-methoxy-carbonylpyrimidine] as the compound, how does the pest or weed control at 1000 g/ha [1] read?
Answer: 0%

Question: And the pest or weed control at 1000 g/ha [2]?
Answer: 10%

Question: And the pest or weed control at 1000 g/ha [3]?
Answer: 0%

Question: What about the pest or weed control at 1000 g/ha [4] of the same compound?
Answer: 40%

Question: What about the pest or weed control at 1000 g/ha [5] of the same compound?
Answer: 0%

Question: What about the pest or weed control at 1000 g/ha [6] of the same compound?
Answer: 30%

Question: What about the pest or weed control at 1000 g/ha [7] of the same compound?
Answer: 10%

Question: And the pest or weed control at 1000 g/ha [8]?
Answer: 100%

Question: And the pest or weed control at 1000 g/ha [9]?
Answer: 40%

Question: And the pest or weed control at 1000 g/ha [10]?
Answer: 70%

Question: What about the pest or weed control at 1000 g/ha [11] of the same compound?
Answer: 40%

Question: And the pest or weed control at 1000 g/ha [12]?
Answer: 70%

Question: For `COC(=O)c1nc(C2CC2)nc(NCC2(O)CCCCC2)c1Cl` [Compound 4-50, 5-Chloro-2-cyclopropyl-4-[(1-hydroxycyclohex-1-yl)methylamino]-6-methoxycarbonyl-pyrimidine], which pest or weed control at 1000 g/ha [1] is on record?
Answer: 10%

Question: And the pest or weed control at 1000 g/ha [2]?
Answer: 100%

Question: What about the pest or weed control at 1000 g/ha [3] of the same compound?
Answer: 10%

Question: What about the pest or weed control at 1000 g/ha [4] of the same compound?
Answer: 100%

Question: What about the pest or weed control at 1000 g/ha [5] of the same compound?
Answer: 10%

Question: What about the pest or weed control at 1000 g/ha [6] of the same compound?
Answer: 100%

Question: And the pest or weed control at 1000 g/ha [7]?
Answer: 10%

Question: What about the pest or weed control at 1000 g/ha [8] of the same compound?
Answer: 100%

Question: And the pest or weed control at 1000 g/ha [9]?
Answer: 10%

Question: And the pest or weed control at 1000 g/ha [10]?
Answer: 70%

Question: What about the pest or weed control at 1000 g/ha [11] of the same compound?
Answer: 50%

Question: What about the pest or weed control at 1000 g/ha [12] of the same compound?
Answer: 80%
